This passage reports EC50 and IC50 results from patent US7265152B2 (ViroPharma Incorporated, priority 2002, dated 2007).

Where two headings read alike, the source gives them in different places.

Assay [1] concerns HCV replicon (BB7 sequence) in Huh-7-Clone A cells. In words: HCV replicon assay: ELISA of NS5A protein in replicon-containing cells (Inhibition of Viral RNA Replication). It is filed as cell-based. To be noted: Hepatitis C virus; HCV replicon assay; ranges of EC50; read-out: Replicon. In short, it runs like this: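 EC50 taken from an 8-point serially diluted dose curve, with NS5A level as read-out: fixed cells probed with primary monoclonal and HRP-conjugated secondary, TMB developed 30 min, OD 650 nm. Compound exposure 72 h in Huh-7-Clone A replicon cells (BB7 sequence).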
For orientation: Replicon systems follow genome replication, usually without infectious particles.

The target of the next assay is T1, HCV NS5B (Hepatitis C virus genotype 1b, UniProt Q9WMX2).
T1 construct: fusion protein, of which the carboxyl terminal 21 amino acids were removed to enhance its solubility; His tag (GSHHHHHH); made in house; host or cells: E. coli
Description: Inhibition of viral RNA-dependent RNA polymerase (RdRp), in vitro biochemical assay. Set-up: species or system HCV genotype 1b virus (BB7). To be noted: HCV NS5B RdRp, BB7, read-out: HCV pol-BB7 IC50. In short, it runs like this: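 IC50 values are the concentrations that halve in vitro RNA synthesis by HCV NS5B polymerase. The enzyme was a C-terminally truncated (Δ21), His-tagged genotype 1b (BB7 consensus) protein purified from E. coli.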

By IC50 is commonly meant the midpoint of a concentration-inhibition curve.

As to `CNC(=O)c1c(-c2ccc(F)cc2)oc2cc(N(C)S(C)(=O)=O)c(OCc3ccc(OC)cc3)cc12` [Example 327, 2-(4-Fluoro-phenyl)-6-(methanesulfonyl-methyl-amino)-5-(4-methoxy-benzyloxy)-benzofuran-3-carboxylic acid methylamide], the EC50 in assay [1] was less than 1000 nM. For the same compound, on HCV NS5B (class symbols A-D), the IC50 is no more than 500 nM.
For `CNC(=O)c1c(-c2ccc(F)cc2)oc2cc(N(C)S(C)(=O)=O)c(OCc3ccncc3)cc12` [Example 328, 2-(4-Fluoro-phenyl)-6-(methanesulfonyl-methyl-amino)-5-(pyridin-4-ylmethoxy)-benzofuran-3-carboxylic acid methylamide], the EC50 in assay [1] was less than 1000 nM. Besides, the half-maximal inhibitory concentration (IC50) at HCV NS5B (class symbols A-D) was no more than 500 nM.
On the same counts, the results for `CNC(=O)c1c(-c2ccc(F)cc2)oc2cc(N(C)S(C)(=O)=O)c(OCc3ccc4c(c3)C(=O)OC(C)(C)O4)cc12` [Example 329, 5-(2,2-Dimethyl-4-oxo-4H-benzo[1,3]dioxin-6-ylmethoxy)-2-(4-fluoro-phenyl)-6-(methanesulfonyl-methyl-amino)-benzofuran-3-carboxylic acid methylamide] are less than 1000 nM and no more than 500 nM.
In the case of `CNC(=O)c1c(-c2ccc(F)cc2)oc2cc(N(CC3CC3)S(C)(=O)=O)c(OC)cc12` [Example 330, 6-(Cyclopropylmethyl-methanesulfonyl-amino)-2-(4-fluoro-phenyl)-5-methoxy-benzofuran-3-carboxylic acid methylamide], the EC50 in assay [1] is less than 1000 nM. Further, at HCV NS5B (class symbols A-D), the IC50 was no more than 500 nM.
Turning to `CNC(=O)CN(c1cc2oc(-c3ccc(F)cc3)c(C(=O)NC)c2cc1OC)S(C)(=O)=O` [Example 331, 2-(4-Fluoro-phenyl)-6-(methanesulfonyl-methylcarbamoylmethyl-amino)-5-methoxy-benzofuran-3-carboxylic acid methylamide], the EC50 in assay [1] was less than 1000 nM. Also, the IC50 at HCV NS5B (activity class) is no more than 500 nM.
Consider `CNC(=O)c1c(-c2ccc(F)cc2)oc2cc(NS(C)(=O)=O)c(F)cc12` [Example 332, 5-Fluoro-2-(4-fluoro-phenyl)-6-methanesulfonylamino-benzofuran-3-carboxylic acid methylamide], for which, in assay [1], the EC50 is less than 10000 nM. Also, at HCV NS5B (activity class), the half-maximal inhibitory concentration (IC50) lay in the range of 500 to 5000 nM.
On to `CCN(c1cc2oc(-c3ccc(F)cc3)c(C(=O)NC)c2cc1F)S(C)(=O)=O` [Example 333, 6-(Ethyl-methanesulfonyl-amino)-5-fluoro-2-(4-fluoro-phenyl)-benzofuran-3-carboxylic acid methylamide], for which the EC50 in assay [1] is less than 10000 nM. Moreover, the 50% inhibitory concentration (IC50) on HCV NS5B (activity class) was no more than 500 nM.
Regarding `CNC(=O)c1c(-c2ccc(F)cc2)oc2cc(C3CCN(S(C)(=O)=O)C3)c(OC)cc12` (stereo not drawn) [Example 334, 2-(4-Fluoro-phenyl)-6-(1-methanesulfonyl-pyrrolidin-3-yl)-5-methoxy-benzofuran-3-carboxylic acid methylamide], the EC50 in assay [1] is less than 1000 nM. The concentration for half-maximal inhibition (IC50) on HCV NS5B (activity class) was no more than 500 nM.
On the same counts, the results for `CCc1cc2c(C(=O)NC)c(-c3ccc(F)cc3)oc2cc1N(CCOC)S(C)(=O)=O` [Example 335, 5-Ethyl-2-(4-fluoro-phenyl)-6-[methanesulfonyl-(2-methoxy-ethyl)-amino]-benzofuran-3-carboxylic acid methylamide] are less than 1000 nM and no more than 500 nM.
On the same counts, the results for `CNC(=O)c1c(-c2ccc(F)cc2)oc2cc(-c3c(COC)noc3C)c(OC)cc12` [Example 336, 2-(4-Fluoro-phenyl)-5-methoxy-6-(3-methoxymethyl-5-methyl-isoxazol-4-yl)-benzofuran-3-carboxylic acid methylamide] are less than 1000 nM and no more than 500 nM.
On to `CCc1cc2c(C(=O)NC)c(-c3ccc(F)cc3)oc2cc1N(CCF)S(C)(=O)=O` [Example 337, 5-Ethyl-6-[(2-fluoro-ethyl)-methanesulfonyl-amino]-2-(4-fluoro-phenyl)-benzofuran-3-carboxylic acid methylamide], for which the EC50 in assay [1] was less than 1000 nM. The IC50 on HCV NS5B (activity class) was no more than 500 nM.
For the compound `CCCOc1cc2c(C(=O)NC)c(-c3ccc(F)cc3)oc2cc1N(CCC)S(C)(=O)=O` [Example 338, 2-(4-Fluoro-phenyl)-6-(methanesulfonyl-propyl-amino)-5-propoxy-benzofuran-3-carboxylic acid methylamide], the EC50 in assay [1] is less than 1000 nM. At HCV NS5B (activity class), the IC50 is no more than 500 nM.
Turning to `CCc1cc2c(C(=O)NC)c(-c3ccc(F)cc3)oc2cc1C(C)(C)O` [Example 339, 5-Ethyl-2-(4-fluoro-phenyl)-6-(1-hydroxy-1-methyl-ethyl)-benzofuran-3-carboxylic acid methylamide], in assay [1], the EC50 was less than 1000 nM. The half-inhibitory concentration (IC50) at HCV NS5B (activity class) was no more than 500 nM.
For the compound `CCc1cc2c(C(=O)NC)c(-c3ccc(F)cc3)oc2cc1C(C)=O` [Example 340, 6-Acetyl-5-ethyl-2-(4-fluoro-phenyl)-benzofuran-3-carboxylic acid methylamide], the EC50 in assay [1] was less than 1000 nM. The half-inhibitory concentration (IC50) at HCV NS5B (activity class) is no more than 500 nM.
With `CCNc1cc2oc(-c3ccc(F)cc3)c(C(=O)NC)c2c(Cl)c1O` [Example 341, 4-Chloro-6-ethylamino-2-(4-fluoro-phenyl)-5-hydroxy-benzofuran-3-carboxylic acid methylamide], the EC50 in assay [1] was greater than 100000 nM. For the same compound, the half-inhibitory concentration (IC50) on HCV NS5B (activity class) was in the range of 500 to 5000 nM.
For the compound `CCNc1cc2oc(-c3ccc(F)cc3)c(C(=O)NC)c2c(Cl)c1OS(C)(=O)=O` [Example 342, Methanesulfonic acid 4-chloro-6-ethylamino-2-(4-fluoro-phenyl)-3-methylcarbamoyl-benzofuran-5-yl ester], the EC50 in assay [1] is less than 10000 nM. Besides, the IC50 at HCV NS5B (activity class) is no more than 500 nM.
In the same order, the values of `CCc1cc2c(C(=O)NC)c(-c3ccc(F)cc3)oc2cc1N(Cc1cscn1)S(C)(=O)=O` [Example 343, 5-Ethyl-2-(4-fluoro-phenyl)-6-(methanesulfonyl-thiazol-4-ylmethyl-amino)-benzofuran-3-carboxylic acid methylamide] are less than 1000 nM and no more than 500 nM.
In the case of `CNC(=O)c1c(-c2ccc(F)cc2)oc2cc(-c3c(COC)noc3C3CC3)c(OC)cc12` [Example 344, 6-(5-Cyclopropyl-3-methoxymethyl-isoxazol-4-yl)-2-(4-fluoro-phenyl)-5-methoxy-benzofuran-3-carboxylic acid methylamide], the EC50 in assay [1] is less than 1000 nM. Besides, at HCV NS5B (activity class), the concentration for half-maximal inhibition (IC50) was no more than 500 nM.
In the same order, the values of `CNC(=O)c1c(-c2ccc(F)cc2)oc2cc(C3CCN(C(C)=O)C3)c(OC)cc12` (stereo not drawn) [Example 345, 6-(1-Acetyl-pyrrolidin-3-yl)-2-(4-fluoro-phenyl)-5-methoxy-benzofuran-3-carboxylic acid methylamide] are less than 10000 nM and no more than 500 nM.
As for `CNC(=O)c1c(-c2ccc(F)cc2)oc2cc(N(C)S(C)(=O)=O)c(OCc3ccc(F)c(F)c3)cc12` [Example 346, 5-(3,4-Difluoro-benzyloxy)-2-(4-fluoro-phenyl)-6-(methanesulfonyl-methyl-amino)-benzofuran-3-carboxylic acid methylamide], in assay [1], the EC50 was less than 1000 nM. Also, the half-inhibitory concentration (IC50) on HCV NS5B (activity class) was no more than 500 nM.
On to `CNC(=O)c1c(-c2ccc(F)cc2)oc2cc(N(C)S(C)(=O)=O)c(OCc3ccccc3OC(F)F)cc12` [Example 347, 5-(2-Difluoromethoxy-benzyloxy)-2-(4-fluoro-phenyl)-6-(methanesulfonyl-methyl-amino)-benzofuran-3-carboxylic acid methylamide], for which, in assay [1], the EC50 was less than 1000 nM. Also, the IC50 at HCV NS5B (activity class) was no more than 500 nM.
On to `CCCOc1cc2c(C(=O)NC)c(-c3ccc(F)cc3)oc2cc1N(C)S(C)(=O)=O` [Example 348, 2-(4-Fluoro-phenyl)-6-(methanesulfonyl-methyl-amino)-5-propoxy-benzofuran-3-carboxylic acid methylamide], for which the EC50 in assay [1] is less than 1000 nM. At HCV NS5B (activity class), the half-maximal inhibitory concentration (IC50) was no more than 500 nM.
Turning to `C=CCOc1cc2c(C(=O)NC)c(-c3ccc(F)cc3)oc2cc1N(C)S(C)(=O)=O` [Example 349, 5-Allyloxy-2-(4-fluoro-phenyl)-6-(methanesulfonyl-methyl-amino)-benzofuran-3-carboxylic acid methylamide], the EC50 in assay [1] is less than 1000 nM. Moreover, the IC50 on HCV NS5B (activity class) is no more than 500 nM.
In the same order, the values of `CCOCc1cc(-c2cc3oc(-c4ccc(F)cc4)c(C(=O)NC)c3cc2OC)no1` [Example 350, 6-(5-Ethoxymethyl-isoxazol-3-yl)-2-(4-fluoro-phenyl)-5-methoxy-benzofuran-3-carboxylic acid methylamide] are less than 1000 nM and no more than 500 nM.
On the same counts, the results for `CNC(=O)c1c(-c2ccc(F)cc2)oc2cc(N(C)S(C)(=O)=O)c(OCC3CC3)cc12` [Example 351, 5-Cyclopropylmethoxy-2-(4-fluoro-phenyl)-6-(methanesulfonyl-methyl-amino)-benzofuran-3-carboxylic acid methylamide] are less than 1000 nM and no more than 500 nM.
For `CNC(=O)c1c(-c2ccc(F)cc2)oc2cc(N(C)S(C)(=O)=O)c(OCc3cc(OC)cc(OC)c3)cc12` [Example 352, 5-(3,5-Dimethoxy-benzyloxy)-2-(4-fluoro-phenyl)-6-(methanesulfonyl-methyl-amino)-benzofuran-3-carboxylic acid methylamide], the EC50 in assay [1] was less than 1000 nM. Moreover, the IC50 at HCV NS5B (activity class) is no more than 500 nM.
With `CNC(=O)c1c(-c2ccc(F)cc2)oc2cc(N(C)S(C)(=O)=O)c(OCc3ccc(S(C)(=O)=O)cc3)cc12` [Example 353, 2-(4-Fluoro-phenyl)-5-(4-methanesulfonyl-benzyloxy)-6-(methanesulfonyl-methyl-amino)-benzofuran-3-carboxylic acid methylamide], in assay [1], the EC50 is less than 1000 nM. Besides, the concentration for half-maximal inhibition (IC50) at HCV NS5B (activity class) is no more than 500 nM.
